Values of other authors as cited in patent US20100120775A1, “Farnesoid X Receptor Agonists” (SMITHKLINE BEECHAM CORPORATION, priority 2006, published 2010).
Entries after “also recorded” stand apart in the source; their conditions may differ.

Experiments:
[1] = test system: hepatic stellate cells (HSC); conditions: cultured HSCs; cited from earlier work
[2] = test system: rodent models of hepatic fibrosis; conditions: multiple rodent models; cited from earlier work
ob/ob mice = conditions: male ob/ob mice; 30 mg/kg intraperitoneally; cited from earlier work
db/db mice = conditions: cited from earlier work
[3] = test system: mice on a lithogenic diet; conditions: cited from earlier work
mice on high-fat diet = conditions: cited from earlier work
bile duct-ligated mouse = bile duct-ligated mouse model; cited from earlier work
[4] = db/db mice, oral 30 mg/kg, bid, serum
[5] = 100 mg/kg twice a day orally, 100 mg/kg

In the case of `CC[C@H]1[C@@H](O)[C@@H]2[C@H](CC[C@]3(C)[C@@H]([C@H](C)CCC(=O)O)CC[C@@H]23)[C@@]2(C)CC[C@@H](O)C[C@@H]12` [Example 6EtCDCA, 6-ethyl-chenodeoxycholic acid], the “expression of α1(I)collagen” value [1] is listed as “decreased”, the “expression of α-smooth muscle actin” value [1] is listed as “decreased” and the hepatic fibrosis [2] is listed as “prevent development and promote resolution”.

In the case of `CC(C)c1onc(-c2c(Cl)cccc2Cl)c1COc1ccc(/C=C/c2cccc(C(=O)O)c2)c(Cl)c1` [GW4064], the body weight (ob/ob mice) is listed as “did not alter”, the fasting blood glucose (ob/ob mice) is listed as “no effect” and the food intake (ob/ob mice) is listed as “did not alter”. The glucose tolerance (ob/ob mice) was “improved”, the insulin concentration (ob/ob mice) was “decreased” and the insulin sensitivity (ob/ob mice) was “enhanced”. The “glycogen storage in the liver” value (db/db mice; db/db mice) was “enhanced”, the “insulin signalling in the liver” value (db/db mice; db/db mice) was “enhanced” and the blood glucose (db/db mice; db/db mice, oral 30 mg/kg, bid) was “decreased”. For the same compound, the “serum β-hydroxybutyrate” value (db/db mice; db/db mice, oral 30 mg/kg, bid) was “decreased”, the NEFA (db/db mice; [4]) was “decreased” and the total cholesterol (db/db mice; [4]) was “decreased”. For the same compound, the triglyceride (db/db mice; [4]) was “decreased”, the hyperglycemia (db/db mice; diabetic db/db mice) was “significantly improved” and the hyperlipidemia (db/db mice; diabetic db/db mice) was “significantly improved”. The “formation of cholesterol crystals in the bile” value [3] was “prevented”, the “body weight / high-fat diet induced body weight gain” value (mice on high-fat diet; [5]) was “decrease; also recorded: reduced” and the serum glucose (mice on high-fat diet; [5]) was “decreased”. For the same compound, the serum insulin (mice on high-fat diet; [5]) was “decreased”, the serum triglyceride (mice on high-fat diet; [5]) was “decreased” and the glucose tolerance (mice on high-fat diet; 100 mg/kg twice a day orally, GTT, 100 mg/kg) was “corrected; also recorded: improve”. The liver triglyceride content (mice on high-fat diet; 100 mg/kg twice a day orally) was “reduced”, the body fat mass (mice on high-fat diet) was “decrease” and the total cholesterol (mice on high-fat diet; serum) was “decrease”. For the same compound, the bacterial overgrowth (bile duct-ligated mouse) was “decreased”, the mucosal barrier (bile duct-ligated mouse) was “improved” and the “translocation of bacteria to mesenteric lymph nodes” value (bile duct-ligated mouse) was “decreased”.
